From paper PMC8280112, “Substrate reduction therapy for Krabbe disease and metachromatic leukodystrophy using a novel ceramide galactosyltransferase inhibitor” (Scientific Reports, 2021)

Molecular target: T1, Human CGT (Homo sapiens, UniProt Q16880)
T1 construct: made in house; host or cells: CHO cells expressing UGT8; crude M-PER lysate
T1 sequence (Q16880 21-541): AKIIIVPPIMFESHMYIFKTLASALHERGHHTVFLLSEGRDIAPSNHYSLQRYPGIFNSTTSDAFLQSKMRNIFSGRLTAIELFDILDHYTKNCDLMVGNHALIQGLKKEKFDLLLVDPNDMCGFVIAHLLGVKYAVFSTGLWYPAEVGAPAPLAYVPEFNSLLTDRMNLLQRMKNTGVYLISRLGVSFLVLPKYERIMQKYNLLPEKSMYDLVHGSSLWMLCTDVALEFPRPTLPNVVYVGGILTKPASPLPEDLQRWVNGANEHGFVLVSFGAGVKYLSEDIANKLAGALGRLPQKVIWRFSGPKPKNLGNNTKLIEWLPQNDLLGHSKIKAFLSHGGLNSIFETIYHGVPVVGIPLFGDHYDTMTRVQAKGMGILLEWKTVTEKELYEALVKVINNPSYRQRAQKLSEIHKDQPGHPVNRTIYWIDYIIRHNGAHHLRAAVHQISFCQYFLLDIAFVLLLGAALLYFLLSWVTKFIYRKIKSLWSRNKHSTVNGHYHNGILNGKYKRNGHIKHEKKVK
Assay: CGT enzyme assay (cell-lysate assay)
Type: biochemical
Conditions: lysate of CHO cells expressing human UGT8
Procedure: Human CGT was obtained from a cell lysate from CHO cells expressing UGT8 (made by BioMarin) prepared in M-PER with proteinase inhibitors (Sigma). Compounds, serially diluted in DMSO and Tween 80, were added to 4 µg/well of CHO/CGT cell lysate to make 20 µL final reaction volume containing 0.5% DMSO and 0.01% Tween 80 in the reaction buffer consisting of 10 µM NDB-(2R-OH)-C6 ceramide (made by BioMarin), 17.5 µM UDP-Galactose (Sigma), 35 µM of dioleoylphosphatidylcholine (DOPC), 5 mM MgCl2, 5 mM MnCl2, 1% BSA, 15 mM KCl, 1 mM EGTA, 8 mM CHAPS, 10 mM HEPES–NaOH pH 7.2. The reaction was incubated at 37 °C for 1 h and stopped by adding 80 µL of methanol:acetonitrile (1:3) with 5 µM N-dodecanoyl-NBD-galactosylceramide (Matreya) internal standard (IS) for 30 min. 200 µL H2O:ACN (1:1) was added for 5 min and then centrifuged at 4000 rpm for 38 min at RT before quantifying NDB-(2R-OH)-C6-galactosylceramide (BioMarin) by LC–MS on a Rapid Fire 360 mass spectrometer (Agilent) coupled with a API4000 + MS in electrospray ionization (ESI) negative mode (Applied Biosystems). These assay conditions were used to screen the Bio-active lipid library (Cayman Cat# 10506).

- IC50: 23 µM
SMILES: O=C1N(c2ccc(Br)cc2)C(=O)C(O)(c2ccccc2)N1c1ccc(Br)cc1 (stereo not shown) [S221]
